This passage reports TGI and GI50 results from PubChem BioAssay (NCI).

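Cultured in 96-well plates, cells were exposed to test compound for 48 hours across five concentrations. GI50 is the concentration that inhibits growth by half. TGI: concentration producing complete growth inhibition.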

Assay in all cases: NCI tumour cell line growth inhibition, 48 h
The test system of assay [1] is HOP-18 NSCLC.
The test system of assay [2] is SF-268 CNS.
Assay [3] relates to 786-0 renal.
The subject of assay [4] is LXFL 529 NSCLC.
The test system of assay [5] is SNB-78 CNS.
Assay [6] deals with RXF-631 renal.
Assay [7] relates to NCI-H522 lung.
Assay [8] relates to M19-MEL melanoma.
The subject of assay [9] is DMS 273 small cell lung.
Assay [10] has as its system KM20L2 colon.
Assay [11] concerns ACHN renal.
The subject of assay [12] is DLD-1 colon.
In assay [13] the test system is DMS 114 small cell lung.
Assay [14] relates to P388 leukemia.
Assay [15] concerns SN12K1 renal.
Assay [16] has as its system XF 498 CNS.

As to `C=C(NC(=O)C(=C)NC(=O)c1csc(C2=NC3c4csc(n4)C4NC(=O)c5csc(n5)C(C(C)(O)C(C)O)NC(=O)C5CSC(=N5)/C(=C/C)NC(=O)C(C(C)O)NC(=O)c5csc(n5)C3(CC2)NC(=O)C(C)NC(=O)C(=C)NC(=O)C(C)NC(=O)C(C(C)CC)NC2C=Cc3c(C(C)O)cc(nc3C2O)C(=O)OC4C)n1)C(N)=O` (centres undefined), the TGI in [1] was 16.8 µM; in [2], over 100 µM; in [3] it was 3.26 µM; in [4], 1.65 µM; in assay [5], over 100 µM; in assay [6] it was 18 µM. Also, the TGI amounted to 1.15 µM in [7]; 3.05 µM in assay [8]; 2.8 µM in assay [9]; 10.7 µM in [10]; 11.7 µM in assay [11]; 4.44 µM in [12]. Further, the TGI in assay [13] worked out at 7.69 µM; in assay [14], 0.19 µM; in assay [15] it was 2.57 µM. Also, in [2], the GI50 was 4.74 µM.

In the case of `COCN1COCN=C1NC#N`, the TGI in assay [1], in assay [16], in [2], in assay [3], in assay [4] and in assay [5] was over 100 µM throughout. Moreover, the TGI in assay [6], in assay [7], in assay [8], in assay [9], in assay [10] and in assay [11] was over 100 µM throughout. For the same compound, the TGI in [12] and in [13] was over 100 µM each time.

On to `O=C1N2Cc3c4ccc5c3CN3C(=O)N6Cc7c(ccc(c7CN1C6(c1ccccc1)C23c1ccccc1)OCCOCCNCCOCCO4)OCCOCCNCCOCCO5` (centres undefined), for which the TGI in assay [1] was 28.9 µM; in assay [16], over 100 µM; in assay [2], over 100 µM; in assay [3] it was 97.4 µM; in [4], 53.7 µM; in assay [5], over 100 µM. The TGI is over 100 µM in assay [6]; over 100 µM in [7]; over 100 µM in [8]; over 100 µM in assay [9]; over 100 µM in assay [10]; 47.9 µM in assay [11]. Also, the TGI in assay [12] and in assay [13] was over 100 µM in each case.
